Experimental findings from ChEMBL document CHEMBL2375273, “Design, synthesis and evaluation of tacrine-flurbiprofen-nitrate trihybrids as novel anti-Alzheimer's disease agents” (Bioorg Med Chem, 2013) are described below.

The target of series [1] is T1, Cholinesterase (Equus caballus, UniProt P81908).
Description: Inhibition of equine serum BChE using acetylcholine as substrate preincubated for 5 mins prior to substrate addition measured after 2 mins by Ellman's method
In series [2] the target is T2, Acetylcholinesterase (Electrophorus electricus, UniProt O42275).
Description: Inhibition of electric eel AChE using acetylcholine as substrate preincubated for 5 mins prior to substrate addition measured after 2 mins by Ellman's method
The conditions of series [3]: buffer, pH 7.4, 4 h.
Description: Chemical stability of the compound in phosphate buffer assessed as nitrite release after 4 hrs at pH 7.4 by Griess method
Series [4] deals with T1, Cholinesterase. In words: Competitive inhibition of equine serum BChE by Lineweaver Burk reciprocal plot analysis in presence of acetylcholine.
Series [5] addresses T2, Acetylcholinesterase. Kind of series: Mixed-type inhibition of electric eel AChE by Lineweaver Burk reciprocal plot analysis in presence of acetylcholine.
The nature of series [6]: Cytotoxicity against Wistar rat primary cortical neurons at 1 uM after 24 hrs by MTT assay. The format is cell-based. As to conditions: cerebral cortex neuron. In general terms: Formazan colour is commonly taken as a measure of viable cells.

T1 sequence (P81908 whole entry): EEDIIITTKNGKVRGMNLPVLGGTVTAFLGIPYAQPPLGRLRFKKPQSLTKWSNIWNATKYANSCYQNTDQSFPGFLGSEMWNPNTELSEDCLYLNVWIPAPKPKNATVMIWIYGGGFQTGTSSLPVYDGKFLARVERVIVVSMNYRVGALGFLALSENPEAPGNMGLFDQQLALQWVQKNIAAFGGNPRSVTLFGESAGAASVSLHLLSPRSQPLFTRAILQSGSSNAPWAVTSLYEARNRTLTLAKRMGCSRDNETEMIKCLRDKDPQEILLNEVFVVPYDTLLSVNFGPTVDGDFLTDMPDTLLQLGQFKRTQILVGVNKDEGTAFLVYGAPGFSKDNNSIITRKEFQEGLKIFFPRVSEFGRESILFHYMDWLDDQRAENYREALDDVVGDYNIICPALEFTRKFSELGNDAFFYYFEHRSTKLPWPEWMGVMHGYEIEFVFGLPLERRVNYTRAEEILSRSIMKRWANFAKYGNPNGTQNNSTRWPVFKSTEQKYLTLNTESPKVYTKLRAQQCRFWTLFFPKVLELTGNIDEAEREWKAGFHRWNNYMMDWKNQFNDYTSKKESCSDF
T2 sequence (O42275 whole entry): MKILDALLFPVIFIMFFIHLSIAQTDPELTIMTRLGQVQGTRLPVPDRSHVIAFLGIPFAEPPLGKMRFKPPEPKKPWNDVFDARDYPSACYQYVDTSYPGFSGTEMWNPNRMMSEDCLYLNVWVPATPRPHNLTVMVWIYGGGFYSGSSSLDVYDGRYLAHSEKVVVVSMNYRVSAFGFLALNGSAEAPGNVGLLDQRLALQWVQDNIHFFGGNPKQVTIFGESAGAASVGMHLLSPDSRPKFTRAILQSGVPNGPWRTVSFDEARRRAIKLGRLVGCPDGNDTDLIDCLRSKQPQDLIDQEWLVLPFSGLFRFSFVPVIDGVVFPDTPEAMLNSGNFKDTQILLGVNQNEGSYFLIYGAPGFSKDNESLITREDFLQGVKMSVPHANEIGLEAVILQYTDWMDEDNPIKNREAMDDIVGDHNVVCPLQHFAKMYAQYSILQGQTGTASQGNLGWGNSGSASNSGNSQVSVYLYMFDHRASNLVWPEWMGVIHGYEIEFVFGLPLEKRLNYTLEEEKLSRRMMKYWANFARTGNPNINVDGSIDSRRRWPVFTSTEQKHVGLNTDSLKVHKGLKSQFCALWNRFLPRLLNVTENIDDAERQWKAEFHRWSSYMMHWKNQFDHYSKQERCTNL

As to `CC(C(=O)NCCCCCCNc1c2c(nc3ccccc13)CCCC2)c1ccc(-c2ccccc2)c(F)c1` (configuration not stated), the IC50 (commonly the concentration that inhibits the measured activity by half) in series [1] was found to be 3.7 nM; in series [2] it was 19.3 nM.

Take `CC(C(=O)NCCCCCCCCNc1c2c(nc3ccccc13)CCCC2)c1ccc(-c2ccccc2)c(F)c1` (configuration not stated): the IC50 worked out at 2.1 nM in series [1] and 34.5 nM in series [2].

`CC(C(=O)NCCCCCCNc1c2c(nc3ccccc13)CCCC2)c1ccc(-c2ccc(OCCO[N+](=O)[O-])cc2)c(F)c1` (configuration not stated) came in with a Drug metabolism in series [3] of 0.348 µg/mL. Also, the IC50 came to 2.5 nM in series [1] and 9.1 nM in series [2]. The Ki (in general, the equilibrium dissociation constant of an inhibitor or competing ligand from its target) was 1.7 nM in series [4] and 16.1 nM in series [5].

In series [3], `CC(C(=O)NCCCCCCNc1c2c(nc3ccccc13)CCCC2)c1ccc(-c2ccc(OCCCO[N+](=O)[O-])cc2)c(F)c1` (configuration not stated) returned a Drug metabolism of 0.353 µg/mL. The values for the IC50 in series [1] and in series [2] were 2.4 nM and 18.7 nM, respectively.

Consider `CC(C(=O)NCCCCCCNc1c2c(nc3ccccc13)CCCC2)c1ccc(-c2ccc(OCCCCO[N+](=O)[O-])cc2)c(F)c1` (configuration not stated), for which the Drug metabolism in series [3] was 0.36 µg/mL. The IC50 in series [1] was found to be 1.3 nM; in series [2], 27.4 nM.

In the case of `CC(C(=O)NCCCCCCNc1c2c(nc3ccccc13)CCCC2)c1ccc(-c2ccc(OCCCCCCO[N+](=O)[O-])cc2)c(F)c1` (configuration not stated), the Drug metabolism in series [3] is 0.283 µg/mL. Besides, the IC50 in series [1] is 0.6 nM; in series [2], 31.1 nM. The Activity entry in series [6] was “Non-toxic”.

Consider `CC(C(=O)NCCCCCCCCNc1c2c(nc3ccccc13)CCCC2)c1ccc(-c2ccc(OCCO[N+](=O)[O-])cc2)c(F)c1` (configuration not stated), for which the Drug metabolism in series [3] amounted to 0.565 µg/mL. Moreover, the IC50 came out at 1 nM in series [1] and 12.5 nM in series [2].

In turn, `CC(C(=O)NCCCCCCCCNc1c2c(nc3ccccc13)CCCC2)c1ccc(-c2ccc(OCCCO[N+](=O)[O-])cc2)c(F)c1` (configuration not stated) yielded a Drug metabolism in series [3] of 0.353 µg/mL. In addition, the IC50 was found to be 1.6 nM in series [1] and 30.6 nM in series [2].

Turning to `CC(C(=O)NCCCCCCCCNc1c2c(nc3ccccc13)CCCC2)c1ccc(-c2ccc(OCCCCO[N+](=O)[O-])cc2)c(F)c1` (configuration not stated), the Drug metabolism in series [3] was found to be 0.36 µg/mL. Moreover, the IC50 in series [1] worked out at 1.3 nM; in series [2] it was 70.9 nM.

`CC(C(=O)NCCCCCCCCNc1c2c(nc3ccccc13)CCCC2)c1ccc(-c2ccc(OCCCCCCO[N+](=O)[O-])cc2)c(F)c1` (configuration not stated) yielded a Drug metabolism in series [3] of 0.34 µg/mL. For the same molecule, the results for the IC50 in series [1] and in series [2] were 1.5 nM and 226 nM, respectively.

For `O=[N+]([O-])O[C@@H]1CO[C@H]2[C@@H]1OC[C@@H]2O` [ISOSORBIDE MONONITRATE], the Drug metabolism in series [3] was found to be 0.412 µg/mL.
